# Experimental data published in PubChem BioAssay (NCI).
#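 Dose response: 5 concentrations. Exposure: 48 h. Format: 96-well plates. Endpoint: linear interpolation; highest concentration if not reached. TGI marks complete inhibition of growth.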
# What was measured:
# Experiment in all cases: inhibition of tumour cell growth, NCI panel, 48 h
# [1] = system: SNB-19 CNS
# [2] = system: XF 498 CNS
# [3] = system: HL-60(TB) leukemia
# [4] = system: A549 NSCLC
# [5] = system: UACC-257 melanoma
# [6] = system: RPMI-8226 leukemia
# [7] = system: A498 renal
# [8] = system: SF-539 CNS
# [9] = system: IGROV1 ovarian
# [10] = system: TK-10 renal
# [11] = system: CCRF-CEM leukemia
# [12] = system: NCI-H522 lung
# [13] = system: UO-31 renal
# [14] = system: OVCAR-3 ovarian
# [15] = system: HCT-15 colon
# [16] = system: UACC-62 melanoma
# [17] = system: ACHN renal
# [18] = system: HCT-116 colon
# [19] = system: SNB-78 CNS
# [20] = system: SF-268 CNS
# [21] = system: CAKI-1 renal
# [22] = system: SF-295 CNS
# [23] = system: DMS 273 small cell lung
# [24] = system: MOLT-4 leukemia
# [25] = system: NCI-H460 lung
# [26] = system: KM20L2 colon
# [27] = system: HOP-18 NSCLC
# [28] = system: U251 CNS
# [29] = system: COLO 205 colon
# [30] = system: SK-MEL-2 melanoma
# [31] = system: LOX IMVI melanoma
# [32] = system: M19-MEL melanoma
# [33] = system: NCI-H23 lung
# [34] = system: HOP-92 NSCLC
# [35] = system: OVCAR-5 ovarian
# [36] = system: OVCAR-8 ovarian
# [37] = system: LXFL 529 NSCLC
# [38] = system: KM12 colon
# [39] = system: NCI-H226 lung
# [40] = system: SK-MEL-5 melanoma
# [41] = system: SN12C renal
# [42] = system: 786-0 renal
# [43] = system: SK-OV-3 ovarian
# [44] = system: SW-620 colon
# [45] = system: HOP-62 NSCLC
# [46] = system: MALME-3M melanoma
# [47] = system: DLD-1 colon
# [48] = system: M14 melanoma
# [49] = system: EKVX NSCLC
# [50] = system: HT29 colon
# [51] = system: HCC-2998 colon
# [52] = system: K-562 leukemia
# [53] = system: SNB-75 CNS
# [54] = system: OVCAR-4 ovarian
# [55] = system: SR leukemia
# [56] = system: RXF 393 renal
# [57] = system: SK-MEL-28 melanoma
smiles,measurement,setting,value
O/N=C(\C(=N/O)Nc1ccc(-c2ccc(NC(=N/O)/C(=N\O)c3ccccc3)cc2)cc1)c1ccccc1,TGI,[1],50.7 µM
same,TGI,[2],41.3 µM
same,TGI,[3],55.6 µM
same,TGI,[4],79.1 µM
same,TGI,[5],80.6 µM
same,TGI,[6],57.9 µM
same,TGI,[7],51 µM
same,TGI,[8],35.3 µM
same,TGI,[9],57.6 µM
same,TGI,[10],82.4 µM
same,TGI,[11],46.3 µM
same,TGI,[12],33.3 µM
same,TGI,[13],82.9 µM
same,TGI,[14],40.2 µM
same,TGI,[15],70 µM
same,TGI,[16],35.4 µM
same,TGI,[17],97.2 µM
same,TGI,[18],34.6 µM
same,TGI,[19],97.4 µM
same,TGI,[20],69.2 µM
same,TGI,[21],62.9 µM
same,TGI,[22],37.4 µM
same,TGI,[23],36.3 µM
same,TGI,[24],41.3 µM
same,TGI,[25],32.4 µM
same,TGI,[26],36.5 µM
same,TGI,[27],37.3 µM
same,TGI,[28],60.9 µM
same,TGI,[29],30.4 µM
same,TGI,[30],36.3 µM
same,TGI,[31],29.1 µM
same,TGI,[32],31.4 µM
same,TGI,[33],32.1 µM
same,TGI,[34],58.1 µM
same,TGI,[35],27.5 µM
same,TGI,[36],45 µM
same,TGI,[37],32.2 µM
same,TGI,[38],33.6 µM
same,TGI,[39],69.2 µM
same,TGI,[40],34.8 µM
same,TGI,[41],97.3 µM
same,TGI,[42],41.4 µM
same,TGI,[43],33.8 µM
same,TGI,[44],49.8 µM
same,TGI,[45],30.1 µM
same,TGI,[46],44.7 µM
same,TGI,[47],53.8 µM
same,TGI,[48],32.8 µM
same,TGI,[49],57.9 µM
same,TGI,[50],29.2 µM
same,TGI,[51],18.7 µM
same,TGI,[52],44 µM
COc1ccc2c3ccc4c(c3n(C)c2c1)C(=O)C=CC4=O,TGI,[1],> 100 µM
same,TGI,[2],52.5 µM
same,TGI,[3],19.8 µM
same,TGI,[4],> 100 µM
same,TGI,[5],> 100 µM
same,TGI,[53],> 100 µM
same,TGI,[6],48.4 µM
same,TGI,[7],> 100 µM
same,TGI,[8],52.8 µM
same,TGI,[9],> 100 µM
same,TGI,[11],49.9 µM
same,TGI,[12],22.4 µM
same,TGI,[13],90.3 µM
same,TGI,[15],> 100 µM
same,TGI,[16],> 100 µM
same,TGI,[17],59.6 µM
same,TGI,[18],48.4 µM
same,TGI,[19],> 100 µM
same,TGI,[20],> 100 µM
same,TGI,[22],> 100 µM
same,TGI,[23],> 100 µM
same,TGI,[24],13.6 µM
same,TGI,[26],> 100 µM
same,TGI,[27],> 100 µM
same,TGI,[28],> 100 µM
same,TGI,[29],> 100 µM
same,TGI,[32],46.2 µM
same,TGI,[33],> 100 µM
same,TGI,[34],32.3 µM
same,TGI,[36],33.2 µM
same,TGI,[54],92.5 µM
same,TGI,[37],28.6 µM
same,TGI,[39],> 100 µM
same,TGI,[40],> 100 µM
same,TGI,[41],> 100 µM
same,TGI,[55],22.2 µM
same,TGI,[42],32.9 µM
same,TGI,[43],> 100 µM
same,TGI,[44],30.6 µM
same,TGI,[45],> 100 µM
same,TGI,[46],> 100 µM
same,TGI,[47],30.2 µM
same,TGI,[48],> 100 µM
same,TGI,[49],> 100 µM
same,TGI,[50],> 100 µM
same,TGI,[56],37.5 µM
same,TGI,[51],> 100 µM
same,TGI,[52],26.6 µM
same,TGI,[57],> 100 µM
